Source: US12129238B2, “Crystalline form of propoxazepam, the method of its making and use as medicinal agent” (priority 2018, dated 2024)

Assays:
Type in all cases: in vivo
[1] = system: mice; assay: Model of acetic acid-induced pain (cramps) on mice; conditions: 0.75% acetic acid i.p. 2 hours after test compound, cramps counted 1st to 20th minute
Experimental: To reproduce acute visceral and somatic deep pain (nociceptive pain), the method of “acetic acid-induced pain (cramps)” was used in mice. The mice received a 0.75% solution of acetic acid intraperitoneally (at a dose of 0.1 ml/10 g of body weight), 2 hours after the administration of the test compounds. The number of cramps was counted from the first to the 20th minute (inclusive) after modeling the pathological state. The calculation of ED50 (the average effective dose of analgesic activity in this model for mice) was carried out using the least squares method.
Two samples of compound (I) were prepared and used in the ‘tail-flick’ test: • The first sample is a dispersed sample of Form I. This was prepared by adding a hot (65° C.) saturated solution of Comparative Example 1 (Form I) in ethyl alcohol to water at room temperature (about 20° C.) and atmospheric pressure (about 101.325 KPa). Dispersed Form I has a particle size (D(50)) of around 29 μm. • The second sample is a dispersed sample of Inventive Example 1, i.e. compound (I) in crystalline Form II. This sample is prepared by was dispersing Inventive Example 1 in a saline solution stabilized with Tween-80. The crystalline structure remains unchanged. Dispersed Form II has a particle size (D(50)) of around 24.3 μm.

[2] = Determination of the mean lethal dose (LD50), oral administration to mice; conditions: mouse, in vivo, po, stabilized suspension in isotonic sodium chloride solution, 14 days observation
Text: (§1) The preliminary assignment of a substance to a certain toxicity class is based on an indicator that quantitatively characterizes the acute toxicity of the compound—the dose of the substance that causes a lethal effect in 50% of the population (LD50). Determination of this indicator in one of the types of experimental animals allows to extrapolate it for other species and justify the dose limits for the first phase of clinical trials.
(§2) To calculate the average dose, mortality/survival rates of the animals by the end of the observation period were used.

[3] = system: rats; assay: Model of thermal nociception (tail flick test) on rats; conditions: rat tail-flick, latency 2 hours after administration, dispersed in saline with Tween 80
Experimental: Antinociceptive (analgesic) activity was evaluated on a rat tail “tail-flick” model using a focused light beam on rats. Latency time was determined by tail pulling away from the beam source, expressed in seconds. Animals were randomized with respect to the initial value of the latent period, with index from 4 to 12 seconds. The magnitude of the antinociceptive effect was indicated by the increasing of the length of the latent period (pain sensitivity threshold, PST). The initial indices of the PST and its changes 2 hours after the administration of the test compound were compared. The calculation of ED50 (the average effective dose of analgesic activity in this model for rats) was carried out using the least squares method.
Three samples of compound (I) were prepared and used in the ‘tail-flick’ test: • The first sample is prepared using the sample of Comparative Example 1, i.e. Form I, in its natural coarse crystalline state. In particular, the coarse crystalline sample of Comparative Example 1 is dispersed in a saline solution and stabilized with Tween 80). The crystalline structure (Form I) remains unchanged. • The second sample was prepared by micronizing (mechanically grinding) the coarse crystalline sample of Comparative Example 1, in order to prepare a sample of Form I having a smaller average particle size. In particular, the micronized sample is dispersed in a saline solution and stabilized with Tween 80). The crystalline structure (Form I) remains unchanged. • The third sample is a dispersed sample of Inventive Example 1, i.e. compound (I) in crystalline Form II. In particular, a sample of Inventive Example 1 is dispersed in a saline solution and stabilized with Tween 80). The crystalline structure (Form II) remains unchanged. The third sample has a similar average particle size to the second sample for a side-by-side comparison.

[4] = system: mice; assay: Determination of the mean lethal dose (LD50), oral administration to mice; conditions: stabilized suspension in isotonic sodium chloride solution, 14 days observation
Text: as §1, §2

Row | SMILES | ED50 (Average effective dose (50%)) ([1]; listed as Dispersed Form I) | LD50 at 14 days [2] | ED50 (Average effective dose (50%)) ([3]; listed as Form I (coarse crystalline)) | ED50 (Average effective dose (50%)) ([3]; listed as Form I (micronized)) | ED50 (Average effective dose (50%)) ([1]; listed as Dispersed Form II) | LD50 (mean lethal dose) [4] | ED50 (Average effective dose (50%)) [3]
1 | CCCOC1N=C(c2ccccc2Cl)c2cc(Br)ccc2NC1=O (stereo not shown) [Form I, 7-Bromo-3-propoxy-5-(2-chlorophenyl)-1,3-dihydrobenzo-[e]-[1,4]-diazepin-2-one] | 1.87 mg/kg | 1120 ± 190 mg/kg | 1.82 mg/kg | 1.06 mg/kg |  |  | 
2 | CCCOC1N=C(c2ccccc2Cl)c2cc(Br)ccc2NC1=O (stereo not shown) [Form II, 7-Bromo-3-propoxy-5-(2-chlorophenyl)-1,3-dihydrobenzo-[e]-[1,4]-diazepin-2-one] |  |  |  |  | 0.89 mg/kg | 1475 ± 402 mg/kg | 0.17 mg/kg
